The text below walks through data of patent publication US20240132525A1, “BORON […], CO[…], METHODS AND USES THEREOF” (priority 2022, published 2024).

Where a name gives a salt, the structure may show the parent alone.

In one data set the target is JAK1 (Homo sapiens (Human), UniProt P23458). The experiment in a line: Biochemical kinase assay (33P-ATP filter-binding), JAK1. The following applies: Table 3a; read-out: IC50 JAK1. From the text: (§1) Biochemical Kinase Assay Protocol (JAK)
(§2) Reaction Procedure: • 1. […] Detected kinase activity by filter-binding method.

The next data set addresses JAK2 (Homo sapiens (Human), UniProt O60674). The data set is described as follows: Biochemical kinase assay (33P-ATP filter-binding), JAK2. The note with it: Table 3a; read-out: IC50 JAK2.
Source text: as §1, §2

A short description of data set [1]: Dog LM (liver microsome) assay. In kind it is in vitro ADME. The following applies: Table 3a; predicted clearance as percent of liver blood flow, 1 μM, 1 mg/ml microsomal protein. On the procedure:
Dog LM (Liver Microsome) Assay
The metabolic degradation of the test compound is assayed at 37° C. with pooled liver microsomes from dogs (Beagle). The final incubation volume of 100 μl per time point contains TRIS buffer pH 7.6 at RT (0.1 M), magnesium chloride (5 mM), microsomal protein (1 mg/ml) and the test compound at a final concentration of 1 μM. Following a short preincubation period at 37° C., the reactions were initiated by addition of beta-nicotinamide adenine dinucleotide phosphate, reduced form (NADPH, 1 mM) and terminated by transferring an aliquot into solvent after different time points. Additionally, the NADPH-independent degradation was monitored in incubations without NADPH, terminated at the last time point. The [%] remaining test compound after NADPH independent incubation is reflected by the parameter c (control) (metabolic stability). The quenched incubations are pelleted by centrifugation (10000 g, 5 min). An aliquot of the supernatant is assayed by LC-MS/MS for the amount of parent compound. The half-life (t½ INVITRO) is determined by the slope of the semilogarithmic plot of the concentration-time profile. The intrinsic clearance (CL_[…]) is calculated by considering the amount of protein in the incubation: CL_[…] [μl/min/mg protein]=(Ln 2/(half-life [min]*protein content [mg/ml]))*1000. For better across species comparison the predicted clearance is expressed as percent of the liver blood flow [% QH] in the individual species. In general, high stability (corresponding to low % QH) of the compounds across species is desired.

Sequence of JAK2 (O60674 whole entry, species assumed): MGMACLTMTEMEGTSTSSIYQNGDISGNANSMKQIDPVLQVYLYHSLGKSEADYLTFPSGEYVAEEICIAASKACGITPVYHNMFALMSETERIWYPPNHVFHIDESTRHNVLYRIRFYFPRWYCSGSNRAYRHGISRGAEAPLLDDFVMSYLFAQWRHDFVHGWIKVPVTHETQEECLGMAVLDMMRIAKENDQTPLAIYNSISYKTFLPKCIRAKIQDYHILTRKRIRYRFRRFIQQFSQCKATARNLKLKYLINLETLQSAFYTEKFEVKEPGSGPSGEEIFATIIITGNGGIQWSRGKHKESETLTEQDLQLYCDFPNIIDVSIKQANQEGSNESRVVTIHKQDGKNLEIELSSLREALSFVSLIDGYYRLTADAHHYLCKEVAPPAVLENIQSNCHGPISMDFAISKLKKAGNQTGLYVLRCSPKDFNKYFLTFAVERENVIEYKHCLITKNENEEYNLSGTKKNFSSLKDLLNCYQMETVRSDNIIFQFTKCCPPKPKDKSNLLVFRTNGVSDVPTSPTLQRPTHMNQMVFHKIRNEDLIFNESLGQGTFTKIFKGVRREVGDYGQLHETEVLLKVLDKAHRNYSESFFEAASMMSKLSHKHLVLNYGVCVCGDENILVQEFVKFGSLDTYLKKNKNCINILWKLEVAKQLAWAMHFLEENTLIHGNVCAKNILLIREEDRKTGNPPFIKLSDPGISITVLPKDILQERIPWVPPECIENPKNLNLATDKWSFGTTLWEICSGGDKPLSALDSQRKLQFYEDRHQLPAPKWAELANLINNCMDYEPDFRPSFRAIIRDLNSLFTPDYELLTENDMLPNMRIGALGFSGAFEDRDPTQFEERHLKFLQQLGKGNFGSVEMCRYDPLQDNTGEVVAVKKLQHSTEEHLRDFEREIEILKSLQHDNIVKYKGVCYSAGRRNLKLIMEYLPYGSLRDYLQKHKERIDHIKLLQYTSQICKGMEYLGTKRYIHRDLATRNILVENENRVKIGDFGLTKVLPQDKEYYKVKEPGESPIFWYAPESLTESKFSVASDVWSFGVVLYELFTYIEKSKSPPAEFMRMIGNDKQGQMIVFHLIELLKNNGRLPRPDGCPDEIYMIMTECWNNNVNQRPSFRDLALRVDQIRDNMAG
Sequence of JAK1 (P23458 whole entry, species assumed): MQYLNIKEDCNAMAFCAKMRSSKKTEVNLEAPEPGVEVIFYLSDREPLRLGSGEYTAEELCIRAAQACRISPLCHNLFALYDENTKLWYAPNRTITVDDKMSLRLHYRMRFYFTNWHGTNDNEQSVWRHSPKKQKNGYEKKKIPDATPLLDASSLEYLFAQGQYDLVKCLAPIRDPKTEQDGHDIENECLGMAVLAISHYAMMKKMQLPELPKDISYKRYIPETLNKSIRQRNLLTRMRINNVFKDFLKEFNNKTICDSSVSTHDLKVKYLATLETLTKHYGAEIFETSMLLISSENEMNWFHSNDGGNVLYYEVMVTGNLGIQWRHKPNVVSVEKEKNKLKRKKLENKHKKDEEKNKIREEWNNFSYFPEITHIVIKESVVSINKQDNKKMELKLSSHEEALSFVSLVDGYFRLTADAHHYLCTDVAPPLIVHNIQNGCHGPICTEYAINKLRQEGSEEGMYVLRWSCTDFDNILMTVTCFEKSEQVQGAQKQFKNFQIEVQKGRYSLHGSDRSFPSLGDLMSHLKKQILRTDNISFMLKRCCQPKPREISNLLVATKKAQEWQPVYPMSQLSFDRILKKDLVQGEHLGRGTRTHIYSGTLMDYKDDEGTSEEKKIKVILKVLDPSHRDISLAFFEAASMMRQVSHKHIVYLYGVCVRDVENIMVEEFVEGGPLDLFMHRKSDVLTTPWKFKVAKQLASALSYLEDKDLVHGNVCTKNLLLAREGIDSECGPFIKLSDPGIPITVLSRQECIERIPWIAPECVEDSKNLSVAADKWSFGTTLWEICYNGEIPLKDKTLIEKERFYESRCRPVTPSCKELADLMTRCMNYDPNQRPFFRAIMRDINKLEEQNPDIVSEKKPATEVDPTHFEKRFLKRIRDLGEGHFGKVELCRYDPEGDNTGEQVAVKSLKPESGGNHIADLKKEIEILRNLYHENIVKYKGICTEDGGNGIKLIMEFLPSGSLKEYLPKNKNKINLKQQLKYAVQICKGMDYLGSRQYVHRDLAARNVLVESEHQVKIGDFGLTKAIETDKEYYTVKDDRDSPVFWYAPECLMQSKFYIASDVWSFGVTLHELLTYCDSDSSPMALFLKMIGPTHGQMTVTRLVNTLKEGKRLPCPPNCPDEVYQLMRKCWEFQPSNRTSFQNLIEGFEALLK

The IC50 is the concentration needed to halve the response being measured. Regarding `Cc1cnc(Nc2cc3c(c(C(F)(F)F)c2)B(O)OC3)nc1N[C@H]1COC[C@@H]1C#N` (single isomer, unassigned) [Example 043b, (trans)-4-[[2-[[1-hydroxy-7-(trifluoromethyl)-3H-2,1-benzoxaborol-5-yl]amino]-5-methyl-pyrimidin-4-yl]amino]tetrahydrofuran-3-carbonitrile], the half-inhibitory concentration (IC50) on JAK1 came out at 7.6 nM; at JAK2, 298 nM. Also, in data set [1], the “Dog LM QH” value is listed as less than 19.9%.

In the case of `Cc1cnc(Nc2ccc3c(c2)C(C)(C)OB3O)nc1N[C@@H]1CCCC[C@H]1C#N` (relative stereo) [Example 014, (trans)-2-[[2-[(1-hydroxy-3,3-dimethyl-2,1-benzoxaborol-5-yl)amino]-5-methylpyrimidin-4-yl]amino]cyclohexanecarbonitrile hydrochloride], the IC50 was found to be 1.4 nM on JAK1 and 6.3 nM at JAK2. Also, in data set [1], the “Dog LM QH” value is listed as 48.7%.

Take `Cc1cnc(Nc2cc(Cl)c3c(c2)COB3O)nc1N[C@@H]1CCCOC1` [Example 030a]: the results for the IC50 at JAK1 and at JAK2 were 51.1 nM and 868 nM, respectively. Besides, the “Dog LM QH” value in data set [1] is reported as less than 19.9%.

As to `Cc1cnc(Nc2ccc3c(c2)C(C(C)C)=CB(O)O3)nc1N[C@H]1COCC[C@@H]1C#N` (single isomer, unassigned) [Example 039b, (trans)-3-((2-((2-hydroxy-4-isopropyl-2H-benzo[e][1,2]oxaborinin-6-yl)amino)-5-methylpyrimidin-4-yl)amino)tetrahydro-2H-pyran-4-carbonitrile], the IC50 on JAK1 turned out to be 216 nM; on JAK2, 2040 nM. For the same compound, the “Dog LM QH” value in data set [1] was 72.1%.

With `Cc1cnc(Nc2cc(F)c3c(c2)COB3O)nc1N[C@@H]1COCC[C@H]1C#N` (single isomer, unassigned) [Example 029b, (trans)-3-[[2-[(7-fluoro-1-hydroxy-3H-2,1-benzoxaborol-5-yl)amino]-5-methyl-pyrimidin-4-yl]amino]tetrahydropyran-4-carbonitrile], the IC50 on JAK1 is 4 nM; on JAK2, 89.8 nM. Further, in data set [1], the “Dog LM QH” value was less than 19.9%.

In the case of `COc1cc(Nc2ncc(C)c(N[C@H]3COCC[C@@H]3C#N)n2)cc2c1B(O)OC2` (single isomer, unassigned) [Example 044a, (trans)-3-((2-((1-hydroxy-7-methoxy-1,3-dihydrobenzo[c][1,2]oxaborol-5-yl)amino)-5-methylpyrimidin-4-yl)amino)tetrahydro-2H-pyran-4-carbonitrile], the IC50 amounted to 0.2 nM at JAK1 and 0.8 nM at JAK2. Further, the “Dog LM QH” value in data set [1] was 34.9%.

Regarding `CC1=Cc2cc(Nc3ncc(C)c(N[C@@H]4CCCC[C@H]4C#N)n3)ccc2OB1O` (relative stereo) [Example 016, (trans)-2-((2-((2-hydroxy-3-methyl-2H-benzo[e][1,2]oxaborinin-6-yl)amino)-5-methylpyrimidin-4-yl)amino)cyclohexane-1-carbonitrile], the IC50 is 2.5 nM on JAK1 and 17.5 nM at JAK2. Besides, in data set [1], the “Dog LM QH” value is listed as 70.2%.

`Cc1cnc(Nc2cc(C#N)c3c(c2)COB3O)nc1N[C@H]1CCCC[C@@H]1C#N` (single isomer, unassigned) [Example 012a, 5-((4-(((trans)-2-cyanocyclohexyl)amino)-5-methylpyrimidin-2-yl)amino)-1-hydroxy-1,3-dihydrobenzo[c][1,2]oxaborole-7-carbonitrile]: the IC50 at JAK1 was found to be 0.6 nM; at JAK2, 2.4 nM. Further, the “Dog LM QH” value in data set [1] was less than 19.9%.

Consider `N#C[C@H]1CCOC[C@@H]1Nc1nc(Nc2cc3c(c(C(F)(F)F)c2)B(O)OC3)ncc1Cl` (single isomer, unassigned) [Example 042b, (trans)-3-((5-chloro-2-((1-hydroxy-7-(trifluoromethyl)-1,3-dihydrobenzo[c][1,2]oxaborol-5-yl)amino)pyrimidin-4-yl)amino)tetrahydro-2H-pyran-4-carbonitrile], for which the IC50 on JAK1 worked out at 98.2 nM; on JAK2 it was 690 nM. For the same compound, the “Dog LM QH” value in data set [1] was less than 19.9%.

For the compound `Cc1cnc(Nc2cc(C)c3c(c2)COB3O)nc1N[C@@H]1CCCC[C@H]1C#N` (relative stereo) [Example 009, (trans)-2-((2-((1-hydroxy-7-methyl-1,3-dihydrobenzo[c][1,2]oxaborol-5-yl)amino)-5-methylpyrimidin-4-yl)amino)cyclohexane-1-carbonitrile], the IC50 on JAK1 was 1.1 nM; on JAK2, 13.8 nM. Moreover, the “Dog LM QH” value in data set [1] was less than 19.9%.

As to `Cc1cnc(Nc2cc(Cl)c3c(c2)C(C(C)C)=CB(O)O3)nc1N[C@H]1COCC[C@@H]1C#N` (single isomer, unassigned) [Example 040a, (trans)-3-((2-((8-chloro-2-hydroxy-4-isopropyl-2H-benzo[e][1,2]oxaborinin-6-yl)amino)-5-methylpyrimidin-4-yl)amino)tetrahydro-2H-pyran-4-carbonitrile], the IC50 on JAK1 and on JAK2 was greater than 1000 nM each time. Besides, in data set [1], the “Dog LM QH” value was 32.9%.

Take `Cc1cnc(Nc2cc3c(c(C(F)(F)F)c2)B(O)OC3)nc1N[C@@H]1COCC[C@H]1C#N` (single isomer, unassigned) [Example 033b, (trans)-3-[[2-[[1-hydroxy-7-(trifluoromethyl)-3H-2,1-benzoxaborol-5-yl]amino]-5-methyl-pyrimidin-4-yl]amino]tetrahydropyran-4-carbonitrile]: the IC50 at JAK1 amounted to 16.3 nM; at JAK2, 389 nM. In data set [1], the “Dog LM QH” value is listed as 64.9%.

For the compound `COc1cc(Nc2ncc(C)c(N[C@H]3COCC[C@@H]3C#N)n2)cc2c1B(O)OC2` (single isomer, unassigned) [Example 044b, (trans)-3-((2-((1-hydroxy-7-methoxy-1,3-dihydrobenzo[c][1,2]oxaborol-5-yl)amino)-5-methylpyrimidin-4-yl)amino)tetrahydro-2H-pyran-4-carbonitrile], the IC50 on JAK1 was determined as 33.8 nM; on JAK2, 96.8 nM. Further, in data set [1], the “Dog LM QH” value is less than 19.9%.

Turning to `Cc1cnc(Nc2cc3c(c(C(F)(F)F)c2)B(O)OC3)nc1N[C@H]1CCCC[C@@H]1C#N` (single isomer, unassigned) [Example 011b, (trans)-2-((2-((1-hydroxy-7-(trifluoromethyl)-1,3-dihydrobenzo[c][1,2]oxaborol-5-yl)amino)-5-methylpyrimidin-4-yl)amino)cyclohexane-1-carbonitrile], the values for the IC50 on JAK1 and at JAK2 were 10 nM and 197 nM, respectively. The “Dog LM QH” value in data set [1] is reported as less than 19.9%.

With `Cc1cnc(Nc2cc(C#N)c3c(c2)COB3O)nc1N[C@H]1CCCC[C@@H]1C#N` (single isomer, unassigned) [Example 012b, 5-((4-(((trans)-2-cyanocyclohexyl)amino)-5-methylpyrimidin-2-yl)amino)-1-hydroxy-1,3-dihydrobenzo[c][1,2]oxaborole-7-carbonitrile], the results for the IC50 at JAK1 and on JAK2 were 8.2 nM and 126 nM, respectively. For the same compound, in data set [1], the “Dog LM QH” value was less than 19.9%.

Consider `Cc1cnc(Nc2cc(C#N)c3c(c2)COB3O)nc1N[C@@H]1CCC[C@H]1C#N` (relative stereo) [Example 018, 5-((4-(((trans)-2-cyanocyclopentyl)amino)-5-methylpyrimidin-2-yl)amino)-1-hydroxy-1,3-dihydrobenzo[c][1,2]oxaborole-7-carbonitrile], for which the IC50 at JAK1 is 0.5 nM; at JAK2, 10.4 nM. The “Dog LM QH” value in data set [1] is reported as less than 19.9%.

On to `CC1=Cc2cc(Nc3ncc(C)c(NC4COCCC4C#N)n3)ccc2OB1O` (stereo not drawn) [Example 038, 3-[[2-[(2-hydroxy-3-methyl-1,2-benzoxaborinin-6-yl)amino]-5-methyl-pyrimidin-4-yl]amino]tetrahydropyran-4-carbonitrile], for which the results for the IC50 at JAK1 and at JAK2 were 1.4 nM and 23.7 nM, respectively. The “Dog LM QH” value in data set [1] is reported as 50.4%.

Consider `Cc1cnc(Nc2ccc3c(c2)OB(O)C=C3)nc1N[C@@H]1COCC[C@H]1C#N` (relative stereo) [Example 034, (trans)-3-[[2-[(2-hydroxy-1,2-benzoxaborinin-7-yl)amino]-5-methyl-pyrimidin-4-yl]amino]tetrahydropyran-4-carbonitrile], for which the IC50 on JAK1 was found to be 1.1 nM; on JAK2, 33.7 nM. Moreover, in data set [1], the “Dog LM QH” value was 74.7%.

Take `Cc1cnc(Nc2cc3c(c(C4CC4)c2)B(O)OC3)nc1N[C@@H]1COCC[C@H]1C#N` (relative stereo) [Example 025, (trans)-3-[[2-[(7-cyclopropyl-1-hydroxy-3H-2,1-benzoxaborol-5-yl)amino]-5-methyl-pyrimidin-4-yl]amino]tetrahydropyran-4-carbonitrile]: the IC50 on JAK1 was determined as 0.4 nM; at JAK2, 24.2 nM. Also, the “Dog LM QH” value in data set [1] is given as less than 19.9%.
